Series [1] deals with Salmonella strains (TA98, TA100, TA1537 and TA1535). In kind it is cell-based. Conditions: bacterial cytotoxicity observed above. As to the method: Compounds were assessed for mutagenicity at Eurofins Panlabs. in 384-well plates using four Salmonella strains: TA98, to probe for frameshift mutation (with quercetin as control), TA100 and TA1535, to probe for base pair […] (with streptozotocin as control), and TA1537, to probe for frameshift mutations (with aminoacridine as control) as previously described.^21 Each compound was incubated at 37° C. for 96 h at four different concentrations (5, 10, 50, and 100 μM), with each concentration tested using 48 replicates, both with and without rat liver S9 metabolic activation. A concurrent bacterial cytotoxicity assay was ran at 0.6, 1.2, 2.5, 5, 10, 25, 50 and 100 μM to rule out false negatives. Bacterial cytotoxicity was expressed as percent of control growth (OD650). Compounds with growth of less than 60% control were flagged and considered bacterial cytotoxic. […] Significances of the positive counts between the treatment and control were determined using one-tailed Fisher's exact test.

The test system of series [2] is A431 cell line (overexpressed EGFR wt). Nature of the series: CellTiter-Glo viability assay, A431. In kind it is cell-based, human. As to the method:
The A431, HCC827, SK-BR-3, ZR-75-30, AU565 and Caco-2 cell lines were obtained from ATCC. The NCI-H1975 cell line was obtained from SIBS. The NCI-H3255 cell line was obtained from CoBioer. Engineered Ba/F3 cell lines were obtained from Crown Bioscience. MCKII-MDR1 cells were obtained from the Netherlands Cancer Institute. HEK293 cells were obtained from Invitrogen. A431 cells were cultured in DMEM (Life Technologies) with 10% FBS. HCC827, NCI-H1975 and AU565 cells were cultured in RPMI1640 (Invitrogen) with 10% FBS. NCI-H3255 cells were cultured in BEGM (Lonza) with 10% FBS. Ba/F3 EGFR-del E746_A750/C797S and Ba/F3 EGFR-L858R/C797S cells were cultured in RPMI (Invitrogen) with 10% FBS. SK-BR-3 cells were cultured in McCoy's 5a (Invitrogen) with 10% FBS. ZR-75-30 cells were cultured in RPMI1640 (Invitrogen) with 20% FBS. BT474 cells were cultured in DMEM (Gibco) with 10% FBS and 10 μg/mL Insulin. Caco-2 and MCKII-MDR1 culture information is given in the permeability studies section. […]
Viability assays using A431, HCC827, NCI-H1975, NCI-H3255, Ba/F3 EGFR-del E746_A750/C797S, Ba/F3 EGFR-L858R/C797S, AU565, SK-BR-3 and ZR-75-30 cells were performed at Crown BioScience. […] Dose-response curves were generated and used to calculate the IC50 values which were calculated on GraphPad Prism from the non-linear regression equation fitted with a sigmoidal dose response and are presented as the mean±SEM.

The target of a further series is CYP3A4 (Homo sapiens, UniProt P08684). Nature of the series: Human CYP450 inhibition in human liver microsomes, CYP3A4. In kind it is in vitro ADME. Conditions: pooled human liver microsomes, probe midazolam (1 μM), 1′-hydroxylation. The method, then: Assessment of compound 15 was carried out at Pharmaron Inc. for its potential to inhibit cytochrome P450 (CYP) isoforms using human liver microsomes. The activities tested were CYP1A2-mediated phenacetin O-demethylation, CYP2C19-mediated (S)-mephenytoin 4′-hydroxylation, CYP2C9-mediated diclofenac 4′-hydroxylation, CYP2D6-mediated dextromethorphan O-demethylation and CYP3A4-mediated midazolam 1′-hydroxylation. Concentrations of substrates were phenacetin (40 μM), mephenytoin (50 μM), diclofenac (6 μM), dextromethorphan (2 μM) and midazolam (1 μM). Probe substrates phenacetin, mephenytoin and dextromethorphan were incubated at 37° for 20 min. Probe substrates diclofenac and midazolam were incubated at 37° for 5 min. […] The reactions were initiated by adding NADPH (1 mM final concentration) after a 5 min-preincubation and the assay was ran in duplicate (n=2). Samples were analyzed by UPLC-MS/MS.

For the next series, the target named is CYP2D6 (Homo sapiens, UniProt P10635). The experiment in a line: CYP2D6 time-dependent inhibition IC50-shift. Conditions: human liver microsomes and primary human hepatocytes; 30 min pre-incubation. In kind it is in vitro ADME. As to the method: Incubations in human hepatocytes were carried out without pre-incubation or with a 30 min pre-incubation at 37° C., 5% CO2. The experiment was carried out at 37° C., 5% CO2 for 5 min.

Series [3] can be described thus: Pharmacokinetics in SD rats (IV and PO). In kind it is in vivo. Conditions: SD rats at the tested doses. As to the method: Animal experiments were performed at Pharmaron Inc. and animal use was approved by Pharmaron's Institutional Animal Care and Use Committee (IACUC) in Pharmaron (Pharmaron IACUC, Protocol #PK-M-07182022, #PK-R-06012022 and #ON-CELL-XEN-06012022) following the guidance of AAALAC. Six- to eight-week-old male SD rats (approximately 200-300 g) obtained from Si Bei Fu Laboratory Animal Technology Co., six- to eight-week-old male CD1 mice (approximately 20-30 g) obtained from Si Bei Fu Laboratory Animal Technology Co., and six- to eight-week-old female BALB/c nude mice (approximately 20-30 g) obtained from Si Bei Fu Laboratory Animal Technology Co., were used in the pharmacokinetic studies. Six- to eight-week-old female BALB/c nude mice (approximately 18-22 g) obtained from Beijing Anikeeper Biotech Co., Ltd were used in the intracranial PDX study. […]
Approximately 0.03 mL of blood was collected from the dorsal metatarsal vein (in the case of CD1 mice), 0.03 mL of blood from the orbit vein (in the case of BALB/c nude mice) or 0.2 mL of blood from the jugular vein (in the case of SD rats) at each time point. […] Concentrations of test articles in the plasma samples were determined using LC-MS/MS and WinNonlin 8.3 (Phoenix™) was used for pharmacokinetic calculations. […]

A value given as a limit tells only on which side of the number the result lay.

Sequence of CYP3A4 (P08684 whole entry, canonical isoform): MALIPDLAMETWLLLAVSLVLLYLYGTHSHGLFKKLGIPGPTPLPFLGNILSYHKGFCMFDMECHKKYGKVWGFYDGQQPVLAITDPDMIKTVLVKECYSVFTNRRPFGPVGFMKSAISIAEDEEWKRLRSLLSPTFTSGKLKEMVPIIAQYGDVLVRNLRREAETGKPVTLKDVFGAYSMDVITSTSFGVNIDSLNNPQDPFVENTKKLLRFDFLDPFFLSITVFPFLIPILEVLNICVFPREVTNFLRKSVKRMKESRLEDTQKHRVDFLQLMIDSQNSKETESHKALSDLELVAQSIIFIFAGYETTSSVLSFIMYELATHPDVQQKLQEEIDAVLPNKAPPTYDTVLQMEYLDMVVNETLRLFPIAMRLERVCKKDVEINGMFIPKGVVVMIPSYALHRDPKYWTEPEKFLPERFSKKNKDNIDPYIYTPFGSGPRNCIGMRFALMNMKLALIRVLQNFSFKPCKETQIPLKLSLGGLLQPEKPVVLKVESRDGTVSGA
Sequence of CYP2D6 (P10635 whole entry): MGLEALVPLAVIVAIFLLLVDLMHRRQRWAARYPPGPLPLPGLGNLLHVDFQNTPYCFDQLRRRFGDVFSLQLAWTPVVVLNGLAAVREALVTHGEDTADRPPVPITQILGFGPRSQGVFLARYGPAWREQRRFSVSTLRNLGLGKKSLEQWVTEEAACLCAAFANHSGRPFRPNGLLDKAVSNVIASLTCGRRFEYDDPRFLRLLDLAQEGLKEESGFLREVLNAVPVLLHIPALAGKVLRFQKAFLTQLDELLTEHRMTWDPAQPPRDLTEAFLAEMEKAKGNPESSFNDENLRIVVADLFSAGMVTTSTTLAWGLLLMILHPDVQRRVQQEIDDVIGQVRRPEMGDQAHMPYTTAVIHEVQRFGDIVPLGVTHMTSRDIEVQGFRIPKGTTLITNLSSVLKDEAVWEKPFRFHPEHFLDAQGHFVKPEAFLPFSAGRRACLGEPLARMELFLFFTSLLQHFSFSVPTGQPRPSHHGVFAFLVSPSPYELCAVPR

With `COc1cc2ncnc(Nc3cccc(Cl)c3F)c2cc1OCCON1CCN(C)CC1` [Compound 15, N-(3-chloro-2-fluorophenyl)-7-methoxy-6-(2-((4-methylpiperazin-1-yl)oxy)ethoxy)quinazolin-4-amine], the “concentration up to which negative ames result is valid” value in series [1] is recorded as “up to 50 uM”. In series [2] (A431, 72 h, result in words), the antiproliferative activity result is reported as “minimal activity”. The IC50 (as a rule, the point on the concentration scale where inhibition reaches its midpoint) in series [2] (Homo sapiens, A-431, A431, overexpressed EGFR wt, 72 h, read-out: antiproliferative IC50) was found to be 83 nM. The IC50 at 5 min against CYP3A4 is greater than 30000 nM. On CYP2D6, the “CYP2D6 time-dependent inhibition (TDI)” value is reported as “not to be time dependent”. In series [3], the “adverse events or signs of toxicity” value is “No adverse events or signs of toxicity”.

The values above are taken from patent US20250236596A1, “HYDROXYLAMINE-BASED EGFR INHIBITORS FOR TREATMENT OF CANCER WITH BRAIN METASTASES” (University of Georgia Research Foundation, Inc., priority 2022, published 2025).
